The values that follow come from ChEMBL document CHEMBL1135081, “Insertion of 2-carboxysuccinate and tricarballylic acid fragments into cyclic-pseudopeptides: new antagonists for the human tachykinin NK-2 receptor” (Bioorg Med Chem Lett, 2002).

In general, Ki refers to a dissociation constant, usually derived from enzyme kinetics or from competition with a known ligand. Read a high Ki as a looser hold on the target. The term pA2 denotes the negative logarithm of the molar antagonist concentration that doubles the agonist concentration needed for the same response. The low end stands for a weaker antagonist, the high end for a more potent antagonist.

The target in assay [1] is T1, Substance-K receptor (Oryctolagus cuniculus, UniProt P79218).
T1 sequence (P79218 whole entry): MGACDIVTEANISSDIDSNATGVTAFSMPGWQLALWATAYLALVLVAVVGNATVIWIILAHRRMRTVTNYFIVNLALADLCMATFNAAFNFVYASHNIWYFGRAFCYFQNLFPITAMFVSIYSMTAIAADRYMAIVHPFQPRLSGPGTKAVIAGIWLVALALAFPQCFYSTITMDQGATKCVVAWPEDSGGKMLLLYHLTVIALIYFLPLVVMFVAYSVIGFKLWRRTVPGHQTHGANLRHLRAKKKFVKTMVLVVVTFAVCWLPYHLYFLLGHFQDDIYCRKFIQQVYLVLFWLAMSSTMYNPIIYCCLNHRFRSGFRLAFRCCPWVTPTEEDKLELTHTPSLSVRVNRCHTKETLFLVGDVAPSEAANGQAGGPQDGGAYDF
Nature of the assay: In vitro functional activity towards Neurokinin NK2 receptor on isolated rabbit urinary bladder (RUB). The conditions noted are these: for Kb: read-out: pA2 (converted).

Assay [2] concerns the target T2, Substance-K receptor (Homo sapiens, UniProt P21452).
T2 sequence (P21452 whole entry): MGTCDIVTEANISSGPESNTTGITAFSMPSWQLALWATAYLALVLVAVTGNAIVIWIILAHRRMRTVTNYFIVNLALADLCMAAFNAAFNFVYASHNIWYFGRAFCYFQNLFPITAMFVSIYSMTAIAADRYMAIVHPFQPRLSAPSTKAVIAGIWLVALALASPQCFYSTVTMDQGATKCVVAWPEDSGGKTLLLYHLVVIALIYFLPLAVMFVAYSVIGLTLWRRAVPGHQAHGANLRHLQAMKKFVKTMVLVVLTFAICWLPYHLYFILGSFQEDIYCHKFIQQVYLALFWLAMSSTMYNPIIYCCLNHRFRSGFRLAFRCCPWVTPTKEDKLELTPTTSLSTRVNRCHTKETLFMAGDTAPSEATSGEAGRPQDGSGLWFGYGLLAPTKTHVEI
The experiment in a line: Displacement of [125I]NKA from human Tachykinin receptor 2 expressed in CHO cells. The assay is classed as cell-based. For orientation: Loss of bound radioactivity is the signal in a displacement assay; it reports binding, not function.

Consider `CC(=O)NC1C(NC(=O)C[C@H]2CC(=O)N[C@@H](Cc3c[nH]c4ccccc34)C(=O)N[C@H](Cc3ccccc3)C(=O)N[C@H](Cc3ccccc3)CNC2=O)OC(CO)C(O)C1O` (some centres not stated), for which the Kb in assay [1] was 7.94 nM. Further, the Ki in assay [2] was 6.31 nM.
In assay [1], `O=C1CC(C(=O)N2CCC(N3CCCCC3)CC2)C(=O)NCC(Cc2ccccc2)NC(=O)C(Cc2ccccc2)NC(=O)[C@H](Cc2c[nH]c3ccccc23)N1` (single isomer, unassigned; 8f) registered a pA2 of 9.1. The compound further showed a Ki in assay [2] of 0.316 nM.
Take `O=C1CC(C(=O)N2CCC(N3CCCCC3)CC2)C(=O)NCC(Cc2ccccc2)NC(=O)C(Cc2ccccc2)NC(=O)[C@H](Cc2c[nH]c3ccccc23)N1` (single isomer, unassigned; 8e): in assay [1], the Kb was 0.794 nM. Further, the Ki in assay [2] is 0.0501 nM.
Consider `O=C1CC(C(=O)NC(CO)CO)C(=O)NCC(Cc2ccccc2)NC(=O)C(Cc2ccccc2)NC(=O)[C@H](Cc2c[nH]c3ccccc23)N1` (single isomer, unassigned), for which the Kb in assay [1] is 3.16 nM. In assay [2], this compound showed a Ki of 3.98 nM.
For the compound `O=C1C[C@H](CC(=O)N2CCC(N3CCCCC3)CC2)C(=O)NC[C@@H](Cc2ccccc2)NC(=O)[C@@H](Cc2ccccc2)NC(=O)[C@H](Cc2c[nH]c3ccccc23)N1`, the Kb in assay [1] is 3.98 nM. The affinity in assay [2], expressed as Ki, was 5.01 nM.
In the same order, the values of `O=C(C[C@@H]1CC(=O)N[C@@H](Cc2c[nH]c3ccccc23)C(=O)NC(Cc2ccccc2)C(=O)NC(Cc2ccccc2)CNC1=O)NC1OC(CO)C(O)C(O)C1O` (single isomer, unassigned) are 6.31 nM and 10 nM.
With `O=C1C[C@@H](CC(=O)N2CCC(N3CCCCC3)CC2)C(=O)NC[C@@H](Cc2ccccc2)NC(=O)[C@@H](Cc2ccccc2)NC(=O)[C@H](Cc2c[nH]c3ccccc23)N1`, the Kb in assay [1] is 2.51 nM. Further, in assay [2], the inhibition constant (Ki) was 1.58 nM.
Taken in the same sequence, the figures for `O=C1CC(C(=O)N2CCOCC2)C(=O)NCC(Cc2ccccc2)NC(=O)C(Cc2ccccc2)NC(=O)[C@H](Cc2c[nH]c3ccccc23)N1` (single isomer, unassigned) were 0.631 nM and 0.126 nM.
Taken in the same sequence, the figures for `CN(C)CCNC(=O)C[C@@H]1CC(=O)N[C@@H](Cc2c[nH]c3ccccc23)C(=O)N[C@H](Cc2ccccc2)C(=O)N[C@H](Cc2ccccc2)CNC1=O` were 3.16 nM and 6.31 nM.
Turning to `CC(=O)NC1C(NC(=O)C2CC(=O)N[C@@H](Cc3c[nH]c4ccccc34)C(=O)N[C@H](Cc3ccccc3)C(=O)N[C@H](Cc3ccccc3)CNC2=O)OC(CO)C(O)C1O` (some centres not stated), in assay [1], the Kb was 3.98 nM. The same compound had a Ki in assay [2] of 2.51 nM.
On to `O=C1CCC(=O)N[C@@H](Cc2c[nH]c3ccccc23)C(=O)NC(Cc2ccccc2)C(=O)N[C@H](Cc2ccccc2)CN1` (single isomer, unassigned), for which the Kb in assay [1] was 5.01 nM.
`CC(=O)NC1C(NC(=O)C[C@@H]2CC(=O)N[C@@H](Cc3c[nH]c4ccccc34)C(=O)N[C@H](Cc3ccccc3)C(=O)N[C@H](Cc3ccccc3)CNC2=O)OC(CO)C(O)C1O` (some centres not stated): the Kb in assay [1] was 6.31 nM. In addition, the Ki in assay [2] was 7.94 nM.
In the same order, the values of `O=C1C[C@@H](CC(=O)N2CCOCC2)C(=O)NCC(Cc2ccccc2)NC(=O)C(Cc2ccccc2)NC(=O)[C@H](Cc2c[nH]c3ccccc23)N1` (single isomer, unassigned) are 1 nM and 0.631 nM.
Taken in the same sequence, the figures for `O=C1CC(C(=O)N2CCN(CCOCCO)CC2)C(=O)NC[C@@H](Cc2ccccc2)NC(=O)[C@@H](Cc2ccccc2)NC(=O)[C@H](Cc2c[nH]c3ccccc23)N1` (some centres not stated) were 1 nM and 1.58 nM.
